In series [1] the test system is tonic hindlimb extension in the MEST test in mice. The note with it: cited from earlier work; for effect on threshold for tonic hindlimb extension: MEST test in mice.
The nature of series [2]: Chimney test (motor coordination). It is filed as in vivo, mice. The note with it: 150 mg/kg i.p. The procedure: The impact of SSR504734 on motor coordination in mice was evaluated by using the chimney test. Each animal was individually placed inside a transparent Plexiglas tube with an inner diameter of 3 cm and a length of 30 cm. The tube was horizontally positioned on a table and shifted vertically once the mouse reached the opposite end. Within a 60 s time frame, the mouse was required to climb backward to escape from the tube. In order to minimize the number of animals used, a chimney test was carried out shortly before seizure tests.
(§1) Table S2. Time-course effect of SSR5504734 on neuromuscular strength and motor […]
(§2) Group Neuromuscular strength Impairment of motor
(§3) SSR504734 was dissolved in normal saline and injected i.p. at the dose of 30 mg/kg. Control animals received saline. The data are expressed as the mean ± SD of grip strengths measured in millinewtons per gram of mouse body weight (mN/g) from the grip-strength test assessing […]
(§4) coordination impairment in the chimney test. Each experimental group consisted of 12 animals. The grip-strength test results were analyzed using a one-way ANOVA with Dunnett’s post hoc test, while the data from the chimney test were statistically evaluated using Fisher’s exact probability test. *p<0.05 vs. control group.
(§5) Table S3. Effect of acute and 14-day treatment with SSR504734 on neuromuscular strength and motor coordination in mice
(§6) In acute studies, SSR504734 and sodium valproate (VPA; positive control) were injected i.p.
(§7) 60 and 15 min before the test, respectively. In subchronic studies, SSR504734 and VPA were injected i.p. every 24 h for 14 days. The last administration was made 60 and 15 min before the tests, respectively. Control animals received saline. Each experimental group consisted of 12 animals. The grip-strength test results were analyzed using a one-way ANOVA with […]
(§8) Fisher’s exact probability test.

The test system of series [3] is tonic hindlimb extension in the MEST test in mice. Nature of the series: Maximal electroshock seizure threshold (MEST) test. It is filed as in vivo. Particulars: 150 mg/kg i.p. The procedure: A sinusoidal current alternation was delivered via saline-soaked transcorneal electrodes. Before stimulation, an ocular anesthetic (1% tetracaine hydrochloride solution obtained from Sigma-Aldrich, St. Louis, MO, USA) was administered to each eye of the mice. During stimulation, the mice were manually immobilized in a hand for 3–5 s and immediately relocated to a transparent box for behavioral observation after the stimulation. Hindlimb tonic extension was taken as an end point. Two experimental approaches were employed: (1) the maximal electroshock seizure threshold (MEST) test at varied current intensities and (2) the maximal electroshock (MES) test at a fixed current intensity.
In the MEST test, seizure thresholds were determined using the “up-and-down” method described by Kimball et al.[28] […] Each mouse was stimulated only once.
On the technique in general: Protection in the maximal electroshock model is a classic sign of anticonvulsant action.

Series [4] can be described thus: Grip strength test (neuromuscular strength). It counts as in vivo, mice. Particulars: 150 mg/kg i.p. The procedure: The effect of SSR504734 on neuromuscular strength was determined using the grip-strength apparatus (BioSeb, Chaville, France). The apparatus consists of a steel wire grid of 8 × 8 cm, connected to an isometric force transducer. Each mouse was held by the tail, allowing it to grasp the grid with its forepaws only and steadily pulled back until it released the grid. The maximum grip strength value (in newtons; N) was measured three times for each animal. The mean force was normalized to body weight and expressed in mN/g ± SD for each experimental group. In order to minimize the number of animals used, a grip-strength test was carried out shortly before seizure tests.
as §1, §2, §3, §4, §5, §6, §7, §8

Series [5] has as its system i.v. PTZ-induced seizures in mice. Nature of the series: Intravenous (i.v.) PTZ seizure threshold test. It counts as in vivo. Particulars: VPA 150 mg/kg. The procedure: Mice were individually placed in a plastic restrainer (12 cm long, 3 cm inner diameter), and the lateral vein of each mouse was catheterized using a 27-gauge needle (Sterican, B. Braun Melsungen, Melsungen, Germany). The needle was attached by polyethylene tubing (PE20RW, Plastics One Inc., Roanoke, VA, USA) to a 10 mL plastic syringe containing 1% solution of PTZ in saline (Sigma-Aldrich, St. Louis, MO, USA) and mounted to a syringe pump (model Physio 22, Hugo Sachs Elektronik, Harvard Apparatus GmbH, March-Hugstetten, Germany). Piece of adhesive tape was used to secure the needle. The proper placement of the needle in the vein was verified by the appearance of blood in the tubing. During the test, mice were placed in a transparent box for observation. The PTZ solution was administered to freely moving mice at a constant rate of 0.2 mL/min. The time intervals from the initiation of PTZ infusion to the occurrence of the three following end points, i.e., (1) the first myoclonic twitch, (2) generalized clonic seizure with loss of righting reflex, and (3) forelimb tonus, were recorded. The PTZ infusion was terminated when tonic seizures, which were often fatal for the mice, began. All mice that survived were euthanized immediately. The thresholds were calculated separately for each end point using the following formula: threshold dose of PTZ (mg/kg) = infusion duration (s) × infusion rate (mL/s) × PTZ concentration (mg/mL)/body weight (kg). Seizure threshold was expressed as the amount of PTZ (mg/kg) ± SD (standard deviation) needed to produce the first observable sign of each end point. Each group consisted of 12–15 animals.

The test system of series [6] is 6 Hz-induced psychomotor seizures in mice. Nature of the series: 6 Hz-induced psychomotor seizure threshold test. It is filed as in vivo. The note with it: SSR504734 any of the doses tested, VPA 150 mg/kg. The procedure: Psychomotor seizures were induced through the application of rectangular pulses (0.2 ms width; 6 pulses per second) for 3 s using a Grass model CCU1 constant current unit coupled to a Grass S48 stimulator (Grass Technologies, Warwick, RI, USA). Stimuli were delivered via saline-soaked transcorneal electrodes. An ocular anesthetic (1% tetracaine hydrochloride) was administered on the animal’s corneas. Mice were restrained manually during stimulation and placed in transparent box immediately for behavioral observation. 6 Hz-induced seizures were characterized by head-nodding, chewing, eye-blinking, twitching of the vibrissae, rearing, stunned posture, forelimb clonus, and Straub tail. The absence of the described features or the return to normal exploratory behavior within 20 s poststimulation was considered as the absence of seizures. The 6 Hz seizure threshold test were conducted on groups of 20 animals stimulated with different current intensities by using the “up-and-down” method described by Kimball et al.[28]
The seizure threshold was quantified as the median current strength (CS50 value with confidence limits for 95% probability), predicting the induction of psychomotor seizures in 50% of the tested animals.

For series [7], the system named is tonic hindlimb extension in the MEST test in rats. The note with it: cited from earlier work.
Series [8] deals with i.v. PTZ-induced seizures. The note with it: cited from earlier work.
For another series, the system named is GlyT1. Particulars: read-out: IC50 (competitive inhibitor of GlyT1); cited from earlier work.
The target in a further series is T1, rat GlyT1 (Rattus norvegicus, UniProt P28572).
T1 construct: tissue Eurofins Panlabs Discovery Services Taiwan, Ltd. (ran the assay); host or cells: Wistar rat brain cortex
T1 sequence (P28572 1-638): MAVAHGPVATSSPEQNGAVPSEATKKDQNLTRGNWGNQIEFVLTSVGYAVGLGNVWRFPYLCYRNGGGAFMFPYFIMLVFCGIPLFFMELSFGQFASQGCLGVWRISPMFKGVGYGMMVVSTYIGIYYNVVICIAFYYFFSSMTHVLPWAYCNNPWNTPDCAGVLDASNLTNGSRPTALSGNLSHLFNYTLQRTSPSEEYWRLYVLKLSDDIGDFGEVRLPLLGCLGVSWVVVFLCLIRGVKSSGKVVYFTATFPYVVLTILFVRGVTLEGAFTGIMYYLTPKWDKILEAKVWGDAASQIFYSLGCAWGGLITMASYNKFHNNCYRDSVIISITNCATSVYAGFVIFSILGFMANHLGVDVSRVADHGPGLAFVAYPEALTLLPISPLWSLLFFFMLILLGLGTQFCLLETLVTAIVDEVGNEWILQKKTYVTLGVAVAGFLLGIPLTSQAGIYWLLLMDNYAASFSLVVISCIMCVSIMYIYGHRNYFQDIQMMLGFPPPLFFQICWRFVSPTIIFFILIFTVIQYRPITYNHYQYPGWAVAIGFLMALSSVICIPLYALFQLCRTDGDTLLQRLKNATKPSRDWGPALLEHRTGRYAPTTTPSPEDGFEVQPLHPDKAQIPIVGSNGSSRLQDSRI
The series is described as follows: GlyT1 radioligand binding ([3H]glycine, rat brain cortex, Eurofins Panlabs). Particulars: rat brain cortex; read-out: IC50 (reference GlyT1 inhibitor in this testing system).

A short description of series [9]: PAMPA (Gentest Precoated PAMPA Plate System). The note with it: ± SD. It is filed as in vitro ADME. The procedure:
(§9) A series of in vitro ADME-Tox tests were performed for SSR504734 in order to estimate its drugability. The ADME-Tox parameters including permeability, plasma protein binding, metabolic stability, neurotoxicity, and hepatotoxicity were carried out as described previously.[31],[32] The ability of SSR504734 to penetrate through the biological membrane by passive diffusion was estimated by the Gentest Precoated PAMPA Plate System (Corning, Tewksbury, MA) and expressed as the permeability coefficient (Pe). The protein binding analysis was performed by using the commercial TRANSIL^XL PPB test, which mimics in vitro physiological plasma conditions where human serum albumin (HAS) and alpha-1-acid glycoprotein AGP are present in a 24:1 ratio. The human metabolism of SSR504734 was studied using human liver microsomes (HLMs) provided by Sigma-Aldrich. The hepatotoxicity and neurotoxicity were estimated in cellular models with the use of hepatoma HepG2 and neuroblastoma SH-SY5Y cell lines to perform the preliminary safety tests. The cells were incubated with SSR504734 at the concentration range of 0.1–100 μM. 1 μM cytostatic drug doxorubicin (DX) was used as the reference.

The test system of the next series is hepatoma HepG2 cells. Nature of the series: Hepatotoxicity, HepG2 cell viability. It is filed as cell-based. The procedure:
as §9
(§10) Figure 8 Effect of cytostatic drug doxorubicin (DX) and SSR504734 on (A) hepatoma HepG2 and (B) neuroblastoma SH-SY5Y cell lines viability after 72 h of incubation at 37 °C, 5% CO2. Data are expressed as means ± SD. Statistical analysis: ****p < 0.0001 vs negative control −1% DMSO in growth media (one-way ANOVA, followed by Dunnett’s post hoc test).
(§11) Figure S8. The effect of cytostatic drug doxorubicin and SSR504734 on (A) hepatoma
(§12) HepG2 and (B) neuroblastoma SH-SY5Y cell line viability after 72 h of incubation at 37 °C,
(§13) 5% CO2. The IC50 values were calculated by GraphPad Prism 8.0.
(§14) (1 picture or pasted object on this page, not shown here)

Series [10] relates to neuroblastoma SH-SY5Y cells. The series is described as follows: Neurotoxicity, SH-SY5Y cell viability. It counts as cell-based. The note with it: Homo sapiens; SH-SY5Y, 72 h of incubation. The procedure:
as §9, §10, §11, §12, §13, §14

The structures appear in SMILES notation. Where two headings read alike, the source gives them in different places.

One may read the IC50 as the concentration at which inhibition is half-maximal.

Consider `CN(CCOc1ccc(-c2ccc3c(c2)OCO3)cc1C(C)(C)C)CC(=O)O` [LY2365109], for which the “effect on seizure thresholds” value in [1] (MEST- and PTZ-induced seizure tests, mice) is “increased seizure thresholds”.
In the case of `CCCC(CCC)C(=O)O` [VPA, sodium valproate], the results for the “Impairment of motor coordination” value in series [2] (14-day treatment) and in series [2] (acute treatment) were 0% and 8.33%, respectively. The “fold increase of seizure threshold” value in series [3] (14-day administration) turned out to be 1.7 fold; in [3] (single administration, 15 min before test), 1.8 fold. In addition, the values for the Neuromuscular strength in series [4] (14-day treatment) and in series [4] (acute treatment) were 22.27 ± 4.84 mN/kg and 29.73 ± 4.60 mN/kg, respectively. Also, the “effect on thresholds for myoclonic twitch, generalized clonus and forelimb tonus” value in series [5] (14-day treatment i.p.) and in series [5] (single administration i.p.) was “significantly increased the thresholds” throughout. Also, the “effect on current intensity necessary to induce psychomotor seizures” value in series [6] (14-day administration i.p.) and in series [6] (single administration i.p.) was “marked increase” in each case.
Take `CN(CCC(Oc1ccc(-c2ccccc2)cc1)c1ccc(F)cc1)CC(=O)O` (stereo not drawn) [NFPS]: the “effect on threshold for tonic hindlimb extension” value in series [7] is “strong, dose-dependent increase”.
For the compound `CNCC(=O)O` [sarcosine], the “effect in the i.v. PTZ test” value in series [8] is recorded as “devoid of any effect”. Moreover, the IC50 is 91 µM in the series with GlyT1 and 55.8 µM on rat GlyT1. Moreover, the “effect on threshold for tonic hindlimb extension” value in series [1] is “increased the threshold”; in series [1] (listed as Sarcosine), “raised the threshold”.
With `Cn1c(=O)c2c(ncn2C)n(C)c1=O` [caffeine], the Papp in series [9] (PAMPA, read-out: PAMPA Pe) is 7.77 ± 2.3 ×10⁻⁶ cm/s. For the same compound, the “PAMPA Pe” value in series [9] is reported as 7.77 10^–6 cm/s.
`COc1ccc2c(c1)CC[C@H](CN(C)CC(=O)O)[C@@H]2c1ccccc1` [Org25935]: the “effect on threshold for tonic hindlimb extension” value in [7] is listed as “strong, dose-dependent increase”.
In the case of `COc1cccc2c1C(=O)c1c(O)c3c(c(O)c1C2=O)C[C@@](O)(C(=O)CO)C[C@@H]3O[C@H]1C[C@H](N)[C@H](O)[C@H](C)O1` [doxorubicin], the “toxicity to HepG2 cells” value with hepatoma HepG2 cells (1 μM, 72 h) is given as “highly toxic”. In addition, the IC50 in the series on hepatoma HepG2 cells (Homo sapiens, HepG2, 72 h of incubation) was 1.91 µM; in series [10], 0.3 µM.
Turning to `Cc1cccc(C)c1C(=O)N[C@@H](c1ccccc1)C1(N(C)C)CCCC1` [GSK931145], in [7], the “effect on threshold for tonic hindlimb extension” value is on record as “strong, dose-dependent increase”.

Source of the values: paper PMC11926788, “Effect of SSR504734, a Selective Glycine Transporter Type 1 Inhibitor, on Seizure Thresholds, Neurotransmitter Levels, and Inflammatory Markers in Mice” (ACS Chemical Neuroscience, 2025).
